Data taken from PubChem BioAssay AID256 (DTP/NCI, 2004).
Several values for one entry are separate records, joined by “and”; a condition that tells them apart may be missing. Equal values may be shown once. Inconclusive results and toxic doses are left out. How the source made its calls: active means survival T/C of 150% or more; inactive means T/C below 125% in these data.

Tested on: CD2F1 mice, L1210 leukemia ip, survival T/C
Assay: NCI In Vivo Anticancer Drug Screen. Data for tumor model L1210 Leukemia (intraperitoneal) in CD2F1 (CDF1) mice
Conditions: endpoint: mean survival time, higher = longer survival
Description: The antitumor activity of compounds was measured in mice bearing transplantable tumors. Survival or tumor size were measured and the results are expressed as the measurement made in the treated group (T) divided by the measurement made in the vehicle treated control group (C). The tumor model used in this assay is L1210 Leukemia (intraperitoneal) in CD2F1 (CDF1) mice

[1] = dose: 200.0 mg/kg/injection, schedule: Q04DX003 (ip), vehicle: saline with Tween-80
[2] = dose: 400.0 mg/kg/injection, schedule: Q04DX003 (ip), vehicle: saline with Tween-80
[3] = dose: 100.0 mg/kg/injection, schedule: Q04DX002 (ip), vehicle: saline with Tween-80
[4] = dose: 200.0 mg/kg/injection, schedule: Q04DX002 (ip), vehicle: saline with Tween-80
[5] = dose: 50.0 mg/kg/injection, schedule: Q04DX002 (ip), vehicle: saline with Tween-80
[6] = dose: 6.25 mg/kg/injection, schedule: Q01DX009 (ip), vehicle: saline with Tween-80
[7] = dose: 25.0 mg/kg/injection, schedule: Q01DX009 (ip), vehicle: saline with Tween-80

Measured: T/C

O=C1NC(=O)C(Br)C(=O)N1
inactive: dose: 75.0 mg/kg/injection, schedule: Q01DX001 (ip), vehicle: saline 102 % of control | dose: 150.0 mg/kg/injection, schedule: Q01DX001 (ip), vehicle: saline 100 % of control

CC(=O)OCCN1C(=O)c2ccccc2C1=O
inactive: dose: 100.0 mg/kg/injection, schedule: Q04DX003 (ip), vehicle: Klucel (hydroxypropylcellulose) (HPC) 97 % of control | dose: 200.0 mg/kg/injection, schedule: Q04DX003 (ip), vehicle: Klucel (hydroxypropylcellulose) (HPC) 94 % of control | dose: 400.0 mg/kg/injection, schedule: Q04DX003 (ip), vehicle: Klucel (hydroxypropylcellulose) (HPC) 102 % of control

N#C/C(=C\c1ccc(-c2ccccc2)cc1)c1ccc([N+](=O)[O-])cc1
inactive: [1] 86 % of control | [2] 94 % of control

CCOP(=O)(Nc1ccc(F)cc1)OCC
inactive: dose: 50.0 mg/kg/injection, schedule: Q01DX001 (ip), vehicle: carboxymethylcellulose (CMC) 106 % of control | dose: 100.0 mg/kg/injection, schedule: Q01DX001 (ip), vehicle: carboxymethylcellulose (CMC) 96 % of control | dose: 200.0 mg/kg/injection, schedule: Q01DX001 (ip), vehicle: carboxymethylcellulose (CMC) 100 % of control | dose: 400.0 mg/kg/injection, schedule: Q01DX001 (ip), vehicle: carboxymethylcellulose (CMC) 102 % of control

CC12COC(=O)C1(C)C1CCC2O1 (centres undefined)
inactive: dose: 1.0 mg/kg/injection, schedule: Q04DX002 (ip), vehicle: saline 92 % of control | dose: 2.0 mg/kg/injection, schedule: Q04DX002 (ip), vehicle: saline 88 % of control | dose: 4.0 mg/kg/injection, schedule: Q04DX002 (ip), vehicle: saline 92 % of control | dose: 5.0 mg/kg/injection, schedule: Q01DX002 (ip), vehicle: saline with Tween-80 100 % of control | dose: 10.0 mg/kg/injection, schedule: Q01DX002 (ip), vehicle: saline with Tween-80 108 % of control

Clc1ccccc1N=Cc1ccc2c(c1)OCO2
inactive: dose: 100.0 mg/kg/injection, schedule: Q01DX009 (ip), vehicle: Klucel (hydroxypropylcellulose) (HPC) 105 % of control | dose: 100.0 mg/kg/injection, schedule: Q04DX003 (ip), vehicle: alcohol 103 % of control | dose: 200.0 mg/kg/injection, schedule: Q01DX009 (ip), vehicle: Klucel (hydroxypropylcellulose) (HPC) 100 % of control | dose: 200.0 mg/kg/injection, schedule: Q04DX003 (ip), vehicle: alcohol 109 % of control | dose: 400.0 mg/kg/injection, schedule: Q01DX009 (ip), vehicle: Klucel (hydroxypropylcellulose) (HPC) 100 % of control | dose: 400.0 mg/kg/injection, schedule: Q04DX003 (ip), vehicle: alcohol 105 % of control

Brc1ccc([I+]c2ccc(Br)cc2)cc1
inactive: dose: 12.5 mg/kg/injection, schedule: Q04DX003 (ip), vehicle: saline with Tween-80 105 % of control | dose: 25.0 mg/kg/injection, schedule: Q04DX003 (ip), vehicle: saline with Tween-80 95 % of control | dose: 50.0 mg/kg/injection, schedule: Q04DX003 (ip), vehicle: saline with Tween-80 101 % of control | [2] 94 % of control

O=C(O)c1ccc2cc(O)ccc2c1
inactive: dose: 100.0 mg/kg/injection, schedule: Q01DX009 (ip), vehicle: saline 100 % of control | dose: 200.0 mg/kg/injection, schedule: Q01DX009 (ip), vehicle: saline 94 % of control

NC(=O)COc1ccc(Br)cc1
inactive: [3] 102 % of control | [4] 98 % of control

CC1C[C@@H](O)C(NC(=O)N(CCCl)N=O)[C@@H](O)C1 (some centres undefined)
active: dose: 6.0 mg/kg/injection, schedule: Q01DX001 (ip), vehicle: saline 191 % of control | dose: 9.0 mg/kg/injection, schedule: Q01DX001 (ip), vehicle: saline 367 % of control | dose: 13.0 mg/kg/injection, schedule: Q01DX001 (ip), vehicle: saline 297 % of control | dose: 20.0 mg/kg/injection, schedule: Q01DX001 (ip), vehicle: saline 500 % of control | dose: 30.0 mg/kg/injection, schedule: Q01DX001 (ip), vehicle: saline 298 % of control

CC(CC1CC=CCC1)C(=O)c1ccccc1 (centres undefined)
inactive: [5] 100 % of control | [3] 100 % of control | [4] 93 % of control | dose: 400.0 mg/kg/injection, schedule: Q04DX002 (ip), vehicle: saline with Tween-80 89 % of control

CCOC(=O)Nc1cc(=O)c([N+](=O)[O-])c(NC(=O)OCC)[nH]1
inactive: dose: 75.0 mg/kg/injection, schedule: Q04DX003 (ip), vehicle: saline 92 % of control | dose: 150.0 mg/kg/injection, schedule: Q04DX003 (ip), vehicle: saline 97 % of control | dose: 300.0 mg/kg/injection, schedule: Q04DX003 (ip), vehicle: saline 101 % of control

O=C(O)CCC1C2C=CC(C2)C1C(=O)O (centres undefined)
inactive: dose: 100.0 mg/kg/injection, schedule: Q04DX003 (ip), vehicle: saline with Tween-80 96 % of control | [1] 96 % of control | [2] 98 % of control

Cc1ccc(S(=O)(=O)ON/N=C2\C(=O)C3CCC2C3)cc1 (centres undefined)
inactive: dose: 25.0 mg/kg/injection, schedule: Q04DX002 (ip), vehicle: saline with Tween-80 100 % of control | [5] 96 % of control | [3] 112 % of control

Cc1cc(Br)ccc1[NH-].Cc1cc(Br)ccc1[NH-].[Cl][Pt+2][Cl]
inactive: dose: 8.8 mg/kg/injection, schedule: Q04DX003 (ip), vehicle: saline with Tween-80 97 % of control | dose: 17.5 mg/kg/injection, schedule: Q04DX003 (ip), vehicle: saline with Tween-80 97 % of control | dose: 35.0 mg/kg/injection, schedule: Q04DX003 (ip), vehicle: saline with Tween-80 97 % of control | dose: 70.0 mg/kg/injection, schedule: Q04DX003 (ip), vehicle: saline with Tween-80 109 % of control

CC(C)c1ccccc(=O)c1O.CC(C)c1ccccc(=O)c1O.[Cu]
inactive: [6] 102 % of control | dose: 12.5 mg/kg/injection, schedule: Q01DX009 (ip), vehicle: saline with Tween-80 100 % of control | [7] 103 % of control

CC[CH2][Sn]([Cl])([Cl])[CH2]CC.Oc1ccccc1C=NCCN=Cc1ccccc1O
inactive: dose: 0.62 mg/kg/injection, schedule: Q01DX009 (ip), vehicle: gum acacia 100 % of control | dose: 1.25 mg/kg/injection, schedule: Q01DX009 (ip), vehicle: gum acacia 100 % of control | dose: 2.5 mg/kg/injection, schedule: Q01DX009 (ip), vehicle: gum acacia 97 % of control and 103 % of control | dose: 3.3 mg/kg/injection, schedule: Q01DX009 (ip), vehicle: saline with Tween-80 103 % of control | dose: 5.0 mg/kg/injection, schedule: Q01DX001 (ip), vehicle: saline with Tween-80 94 % of control | dose: 5.0 mg/kg/injection, schedule: Q01DX009 (ip), vehicle: gum acacia 104 % of control and 108 % of control | dose: 5.0 mg/kg/injection, schedule: Q01DX009 (ip), vehicle: saline with Tween-80 92 % of control | dose: 7.5 mg/kg/injection, schedule: Q01DX009 (ip), vehicle: saline with Tween-80 95 % of control | dose: 10.0 mg/kg/injection, schedule: Q01DX001 (ip), vehicle: saline with Tween-80 95 % of control | dose: 20.0 mg/kg/injection, schedule: Q01DX001 (ip), vehicle: saline with Tween-80 96 % of control

CC(=O)Nc1cccc(N=Cc2ccc(N(CCOS(C)(=O)=O)CCOS(C)(=O)=O)cc2C)c1
inactive: [6] 123 % of control | dose: 8.0 mg/kg/injection, schedule: Q01DX009 (ip), vehicle: saline with Tween-80 118 % of control | [7] 124 % of control

CC(c1ccccc1)n1cncc1C(=O)NN(C)C (centres undefined)
inactive: dose: 100.0 mg/kg/injection, schedule: Q01DX001 (ip), vehicle: saline with Tween-80 96 % of control | dose: 200.0 mg/kg/injection, schedule: Q01DX001 (ip), vehicle: saline with Tween-80 93 % of control | dose: 400.0 mg/kg/injection, schedule: Q01DX001 (ip), vehicle: saline with Tween-80 91 % of control

Nc1ncnc2c1nnn2Cc1ccco1
inactive: dose: 12.5 mg/kg/injection, schedule: Q01DX005 (ip), vehicle: other 96 % of control | dose: 25.0 mg/kg/injection, schedule: Q01DX005 (ip), vehicle: other 89 % of control | dose: 50.0 mg/kg/injection, schedule: Q01DX005 (ip), vehicle: other 89 % of control | dose: 100.0 mg/kg/injection, schedule: Q01DX005 (ip), vehicle: other 93 % of control | dose: 200.0 mg/kg/injection, schedule: Q01DX005 (ip), vehicle: other 96 % of control

CCCCCCCC/C=C\CCCCCCCC(=O)NCCCN(C)CCCNC(=O)CCCCCCC/C=C/CCCCCCCC
inactive: dose: 75.0 mg/kg/injection, schedule: Q01DX001 (ip), vehicle: other 100 % of control | dose: 150.0 mg/kg/injection, schedule: Q01DX001 (ip), vehicle: other 104 % of control | dose: 300.0 mg/kg/injection, schedule: Q01DX001 (ip), vehicle: other 100 % of control
